Consider four compounds from publication PMC5762908 (Scientific Reports, 2018).

Where two headings read alike, the source gives them in different places.

Assay [1] concerns PBMC (human peripheral blood mononuclear cells). The experiment in a line: Cytotoxic activity, alamar blue assay, PBMC non-cancer cells. The class given is cell-based. Conditions: 72 h incubation. (Resazurin is reduced to fluorescent resorufin, in cell work by metabolically active cells.)
Assay [2] relates to WT SV40 MEF (wild-type immortalized mouse embryonic fibroblast). The experiment in a line: Cytotoxic activity, alamar blue assay, WT SV40 MEF. The class given is cell-based. Conditions: 72 h incubation.
Assay [3] deals with MRC-5 (human lung fibroblast). The assay can be described thus: Cytotoxic activity, alamar blue assay, MRC-5 non-cancer cells. The class given is cell-based.
The next assay deals with calf thymus DNA (ctDNA). The assay can be described thus: DNA intercalation assay, ethidium bromide displacement. Conditions: complex 5, 10 and 20 µM; doxorubicin 10 µM; data not shown. The class given is binding. The protocol: DNA intercalation was assessed by examining the ability of the complex to displace ethidium bromide from ctDNA (Sigma-Aldrich Co.)[32]. The DNA intercalation assay was conducted in 96-well plate (100 µL) and contained 15 µg/mL ctDNA, 1.5 µM ethidium bromide and 5, 10 and 20 µM of complex in saline solution. The vehicle (0.1% DMSO) used for diluting the compound tested was used as the negative control. Doxorubicin (10 µM) was used as the positive control. Fluorescence was measured using excitation and emission wavelengths of 320 nm and 600 nm, respectively using the spectraMax Microplate Reader (Molecular Devices).

Assay [4] deals with BAD KO SV40 MEF (BAD gene knockout immortalized mouse embryonic fibroblast). The experiment in a line: Cytotoxic activity, alamar blue assay, BAD KO SV40 MEF. In kind it is cell-based. Conditions: 72 h incubation.
The next assay relates to advanced CRC. The note with it: cited from earlier work.
Where [5] appears, read: Homo sapiens, MRC5, 72 h incubation.

In general, IC50 refers to the concentration that gives 50% inhibition. Low values mean higher potency, high ones lower potency. On to `COc1cccc2c1C(=O)c1c(O)c3c(c(O)c1C2=O)C[C@@](O)(C(=O)CO)C[C@@H]3O[C@H]1C[C@H](N)[C@H](O)[C@H](C)O1` [DOX, Doxorubicin], for which the IC50 worked out at 5.1 µM in assay [1] (Homo sapiens, PBMC); 0.03 µM in assay [2] (Mus musculus, Fibroblast); 1.6 µM in assay [3] (setting [5]); 0.4 µM in assay [4] (Mus musculus, Fibroblast). The “Ethidium bromide fluorescence (displacement from ctDNA)” value with calf thymus DNA (ctDNA) is given as “reduced the fluorescence intensity of ethidium bromide”.
For `O=c1[nH]cc(F)c(=O)[nH]1` [5-FU, 5-fluorouracil], the IC50 in assay [1] (Homo sapiens, PBMC) is 78 µM; in assay [2] (Mus musculus, Fibroblast) it was 1.7 µM; in assay [3] (setting [5]) it was 57.9 µM; in assay [4] (Mus musculus, Fibroblast), 7.3 µM. Further, the Response rates with advanced CRC (5-FU as a monotherapy) was 10–15%; in the assay on advanced CRC (5-FU combined with irinotecan and oxaliplatin), 40–50%.
As for `O=C1[O][Pt]2([NH][C@@H]3CCCC[C@H]3[NH]2)[O]C1=O` [OXA, oxaliplatin], the IC50 in assay [1] worked out at 12.4 µM; in assay [3] (72 h incubation), 1.4 µM.
[Ru(5-FU)(PPh3)2(bipy)]PF6 [RU/5-FU]: the IC50 in assay [1] turned out to be 5.7 µM; in assay [2], 1.9 µM; in assay [3] (72 h incubation), 9.5 µM; in assay [4] it was 1.8 µM. In addition, in the assay with calf thymus DNA (ctDNA), the “Ethidium bromide fluorescence (displacement from ctDNA)” value is “did not decrease the ethidium bromide fluorescence”.
